Values after ≈ are worked out from the molar mass of the structure shown.
Tests used:
[1] = test system: Staphylococcus aureus; assay: Antibacterial activity against Staphylococcus aureus MTCC 2901 after 24 hrs by tube dilution method; assay type: functional
[2] = test system: Bacillus subtilis; assay: Antibacterial activity against Bacillus subtilis MTCC 2063 after 24 hrs by tube dilution method; assay type: functional
[3] = test system: Escherichia coli; assay: Antibacterial activity against Escherichia coli MTCC 1652 after 24 hrs by tube dilution method; assay type: functional
[4] = test system: Candida albicans; assay: Antifungal activity against Candida albicans MTCC 227 after 48 hrs by tube dilution method; assay type: functional
[5] = test system: Aspergillus niger; assay: Antifungal activity against Aspergillus niger MTCC 8189 after 7 days by tube dilution method; assay type: functional
[6] = test system: Staphylococcus aureus; assay: Antibacterial activity against Staphylococcus aureus MTCC 2901 after 24 hrs followed by subculturing; assay type: functional
[7] = test system: Bacillus subtilis; assay: Antibacterial activity against Bacillus subtilis MTCC 2063 after 24 hrs by tube dilution method hrs followed by subculturing; assay type: functional
[8] = test system: Escherichia coli; assay: Antibacterial activity against Escherichia coli MTCC 1652 after 24 hrs by tube dilution method hrs followed by subculturing; assay type: functional
[9] = test system: Candida albicans; assay: Antifungal activity against Candida albicans MTCC 227 after 48 hrs by tube dilution method hrs followed by subculturing; assay type: functional
[10] = test system: Aspergillus niger; assay: Antifungal activity against Aspergillus niger MTCC 8189 after 7 days by tube dilution method hrs followed by subculturing; assay type: functional
[11] = test system: Staphylococcus aureus; assay: Ratio of MIC to MBC for Staphylococcus aureus MTCC 2901; assay type: functional
[12] = test system: Bacillus subtilis; assay: Ratio of MIC to MBC for Bacillus subtilis MTCC 2063; assay type: functional
[13] = test system: Escherichia coli; assay: Ratio of MIC to MBC for Escherichia coli MTCC 1652; assay type: functional
[14] = test system: Candida albicans; assay: Ratio of MIC to MFC for Candida albicans MTCC 227; assay type: functional
[15] = test system: Aspergillus niger; assay: Ratio of MIC to MFC for Aspergillus niger MTCC 8189; assay type: functional
[16] = Partition coefficient, log P of the compound; assay type: physicochemical; details: octanol/water
[17] = test system: MCF7; assay: cells; details: Homo sapiens, MCF7, 72 h
Description: Cytotoxicity against human MCF7 cells after 72 hrs by MTT assay

[18] = test system: HCT-116; assay: cells; details: Homo sapiens, HCT-116, 72 h

SMILES	-logMIC [1]	-logMIC [2]	-logMIC [3]	-logMIC [4]	-logMIC [5]	MBC [6]	MBC [7]	MBC [8]	MFC [9]	MFC [10]	Ratio [11]	Ratio [12]	Ratio [13]	Ratio [14]	Ratio [15]	logP [16]	IC50 [17]	IC50 [18]
CCOC(=O)C1=C(C)NC(=S)NC1c1cn(C(=O)CNc2ccccc2)c2ccccc12 (stereo not given)	1.55	1.25	1.55	1.55	1.55	>0.11 uM/ml	>0.11 uM/ml	>0.11 uM/ml	>0.11 uM/ml	>0.11 uM/ml	3	3	3	3	3	2.92	52 µg/mL (≈ 116 µM)	450 µg/mL (≈ 1000 µM)
CCOC(=O)C1=C(C)NC(=S)NC1c1cn(C(=O)CNc2ccccc2Cl)c2ccccc12 (stereo not given)	1.29	1.29	1.59	1.59	1.59	>0.1 uM/ml	>0.1 uM/ml	>0.1 uM/ml	>0.1 uM/ml	>0.1 uM/ml	3	3	3	3	3	3.44		
CCOC(=O)C1=C(C)NC(=S)NC1c1cn(C(=O)CNc2ccc([N+](=O)[O-])c(Cl)c2)c2ccccc12 (stereo not given)	1.63	1.32	1.63	1.63	1.63	>0.09 uM/ml	>0.09 uM/ml	>0.09 uM/ml	>0.09 uM/ml	>0.09 uM/ml	3	3	3	3	3	3.4	50 µg/mL (≈ 94.7 µM)	29 µg/mL (≈ 54.9 µM)
CCOC(=O)C1=C(C)NC(=O)NC1c1cn(C(=O)CNc2ccc([N+](=O)[O-])cc2Cl)c2ccccc12 (stereo not given)	1.61	1.61	1.61	1.61	1.61	>0.1 uM/ml	>0.1 uM/ml	>0.1 uM/ml	>0.1 uM/ml	>0.1 uM/ml	3	3	3	3	3	1.99	50 µg/mL (≈ 97.7 µM)	5 µg/mL (≈ 9.77 µM)
CCOC(=O)C1=C(C)NC(=O)NC1c1cn(C(=O)CNc2ccc([N+](=O)[O-])cc2C)c2ccccc12 (stereo not given)	1.59	1.29	1.59	1.59	1.59	>0.1 uM/ml	>0.1 uM/ml	>0.1 uM/ml	>0.1 uM/ml	>0.1 uM/ml	3	3	3	3	3	1.94	50 µg/mL (≈ 102 µM)	600 µg/mL (≈ 1220 µM)
CCOC(=O)C1=C(C)NC(=S)NC1c1cn(C(=O)CNc2ccc([N+](=O)[O-])cc2C)c2ccccc12 (stereo not given)	1.61	1.61	1.61	1.61	1.61	>0.1 uM/ml	>0.1 uM/ml	>0.1 uM/ml	>0.1 uM/ml	>0.1 uM/ml	3	3	3	3	3	3.34	48 µg/mL (≈ 94.6 µM)	> 1000 µg/mL
CCOC(=O)C1=C(C)NC(=O)NC1c1cn(C(=O)CNc2ccccc2[N+](=O)[O-])c2ccccc12 (stereo not given)	1.58	1.58	1.58	1.58	1.58	>0.1 uM/ml	>0.1 uM/ml	>0.1 uM/ml	>0.1 uM/ml	>0.1 uM/ml	3	3	3	3	3	1.48	40 µg/mL (≈ 83.8 µM)	250 µg/mL (≈ 524 µM)
CCOC(=O)C1=C(C)NC(=S)NC1c1cn(C(=O)CNc2ccccc2[N+](=O)[O-])c2ccccc12 (stereo not given)	1.3	1.6	1.6	1.6	1.6	>0.1 uM/ml	>0.1 uM/ml	>0.1 uM/ml	>0.1 uM/ml	>0.1 uM/ml	3	3	3	3	3	2.88	550 µg/mL (≈ 1110 µM)	> 1000 µg/mL
CCOC(=O)C1=C(C)NC(=O)NC1c1cn(C(=O)CNc2cccc([N+](=O)[O-])c2)c2ccccc12 (stereo not given)	1.88	1.58	1.88	1.58	1.58	0.1 uM/ml	>0.1 uM/ml	0.1 uM/ml	>0.1 uM/ml	>0.1 uM/ml	3	3	3	3	3	1.48		
CCOC(=O)C1=C(C)NC(=O)NC1c1cn(C(=O)CNc2ccc([N+](=O)[O-])cc2)c2ccccc12 (stereo not given)	1.88	1.58	1.88	1.58	1.58	0.1 uM/ml	>0.1 uM/ml	0.1 uM/ml	>0.1 uM/ml	>0.1 uM/ml	3	3	3	3	3	1.48	> 1000 µg/mL	
CCOC(=O)C1=C(C)NC(=S)NC1c1cn(C(=O)CNc2ccc(Cl)cc2)c2ccccc12 (stereo not given)	1.59	1.59	2.19	1.59	1.59	>0.1 uM/ml	>0.1 uM/ml	0.05 uM/ml	>0.1 uM/ml	>0.1 uM/ml	3	3	3	3	3	3.44	80 µg/mL (≈ 166 µM)	
CCOC(=O)C1=C(C)NC(=O)NC1c1cn(C(=O)CNc2ccc(Cl)cc2)c2ccccc12 (stereo not given)	1.57	1.27	1.27	1.57	1.57	>0.11 uM/ml	>0.11 uM/ml	>0.11 uM/ml	>0.11 uM/ml	>0.11 uM/ml	3	3	3	3	3	2.04	200 µg/mL (≈ 428 µM)	
CCOC(=O)C1=C(C)NC(=S)NC1c1cn(C(=O)CNc2ccc([N+](=O)[O-])cc2)c2ccccc12 (stereo not given)	1.6	1.6	2.5	1.9	1.6	>0.1 uM/ml	>0.1 uM/ml	0.03 uM/ml	0.1 uM/ml	>0.1 uM/ml	3	3	3	3	3	2.88	> 1000 µg/mL	
CCOC(=O)C1=C(C)NC(=S)NC1c1cn(C(=O)CNc2ccccc2N)c2ccccc12 (stereo not given)	1.87	1.57	2.17	1.57	1.57	0.11 uM/ml	>0.11 uM/ml	0.05 uM/ml	>0.11 uM/ml	0.11 uM/ml	3	3	3	3	3	2.14	100 µg/mL (≈ 216 µM)	
OC(Cn1cncn1)(Cn1cncn1)c1ccc(F)cc1F [FLUCONAZOLE]				2.64	2.64				0.04 uM/ml	0.04 uM/ml								
O=c1[nH]cc(F)c(=O)[nH]1 [FLUOROURACIL]																	0.67 µg/mL (≈ 5.15 µM)	6 µg/mL (≈ 46.1 µM)
CCn1cc(C(=O)O)c(=O)c2cc(F)c(N3CCNCC3)cc21 [NORFLOXACIN]	2.61	2.61	2.61			0.019 uM/ml	0.019 uM/ml	0.019 uM/ml										

Reference: ChEMBL document CHEMBL1932988, “Synthesis, antimicrobial, anticancer evaluation and QSAR studies of 6-methyl-4-[1-(2-substituted-phenylamino-acetyl)-1H-indol-3-yl]-2-oxo/thioxo-1,2,3,4-tetrahydropyrimidine-5-carboxylic acid ethyl esters” (Eur J Med Chem, 2012)
